Measured values published in ChEMBL document CHEMBL5244269, “Improving metabolic stability and removing aldehyde oxidase liability in a 5-azaquinazoline series of IRAK4 inhibitors” (Bioorg Med Chem, 2020).

What was measured:
Format in all cases: functional
[1] = test system: OCI-Ly10; experiment: Growth inhibition of human OCILY10 cells at 3.3 uM incubated for 3 days in presence of 0.017 uM acalabrutinib relative to control; details: OCI-Ly10, 72 h, time 3 day, read-out: GI
[2] = test system: OCI-Ly10; experiment: Growth inhibition of human OCILY10 cells at 3.3 uM incubated for 3 days in presence of 0.33 uM acalabrutinib relative to control; details: OCI-Ly10, 72 h, time 3 day, read-out: GI
[3] = test system: OCI-Ly10; experiment: Growth inhibition of human OCILY10 cells at 0.33 uM incubated for 3 days in presence of 0.33 uM acalabrutinib relative to control; details: OCI-Ly10, 72 h, time 3 day, read-out: GI
[4] = test system: OCI-Ly10; experiment: Growth inhibition of human OCILY10 cells at 3.3 uM incubated for 3 days in presence of 0.003 uM acalabrutinib relative to control; details: OCI-Ly10, 72 h, time 3 day, read-out: GI
[5] = test system: SUD4; experiment: Growth inhibition of human SU-DHL-4 cells at 10 uM incubated for 3 days in presence of 0.003 uM acalabrutinib relative to control; details: SU-DHL-4, 72 h, time 3 day, read-out: GI
[6] = test system: OCI-Ly10; experiment: Growth inhibition of human OCILY10 cells at 10 uM incubated for 3 days in presence of 0.33 uM acalabrutinib relative to control; details: OCI-Ly10, 72 h, time 3 day, read-out: GI
[7] = test system: SUD4; experiment: Growth inhibition of human SU-DHL-4 cells at 10 uM incubated for 3 days in presence of 0.33 uM acalabrutinib relative to control; details: SU-DHL-4, 72 h, time 3 day, read-out: GI
[8] = test system: OCI-Ly10; experiment: Growth inhibition of human OCILY10 cells at 10 uM incubated for 3 days in presence of 0.003 uM acalabrutinib relative to control; details: OCI-Ly10, 72 h, time 3 day, read-out: GI
[9] = test system: OCI-Ly10; experiment: Growth inhibition of human OCILY10 cells at 10 uM incubated for 3 days in presence of 0.17 uM acalabrutinib relative to control; details: OCI-Ly10, 72 h, time 3 day, read-out: GI
[10] = test system: OCI-Ly10; experiment: Growth inhibition of human OCILY10 cells at 0.33 uM incubated for 3 days in presence of 0.17 uM acalabrutinib relative to control; details: OCI-Ly10, 72 h, time 3 day, read-out: GI
[11] = test system: OCI-Ly10; experiment: Growth inhibition of human OCILY10 cells at 0.33 uM incubated for 3 days in presence of 0.003 uM acalabrutinib relative to control; details: OCI-Ly10, 72 h, time 3 day, read-out: GI
[12] = test system: SUD4; experiment: Growth inhibition of human SU-DHL-4 cells at 1.7 uM incubated for 3 days in presence of 0.017 uM acalabrutinib relative to control; details: SU-DHL-4, 72 h, time 3 day, read-out: GI
[13] = test system: SUD4; experiment: Growth inhibition of human SU-DHL-4 cells at 3.3 uM incubated for 3 days in presence of 0.033 uM acalabrutinib relative to control; details: SU-DHL-4, 72 h, time 3 day, read-out: GI
[14] = test system: SUD4; experiment: Growth inhibition of human SU-DHL-4 cells at 0.17 uM incubated for 3 days in presence of 0.033 uM acalabrutinib relative to control; details: SU-DHL-4, 72 h, time 3 day, read-out: GI
[15] = test system: OCI-Ly10; experiment: Growth inhibition of human OCILY10 cells at 0.17 uM incubated for 3 days in presence of 0.003 uM acalabrutinib relative to control; details: OCI-Ly10, 72 h, time 3 day, read-out: GI
[16] = test system: SUD4; experiment: Growth inhibition of human SU-DHL-4 cells at 3.3 uM incubated for 3 days in presence of 0.33 uM acalabrutinib relative to control; details: SU-DHL-4, 72 h, time 3 day, read-out: GI
[17] = test system: OCI-Ly10; experiment: Growth inhibition of human OCILY10 cells at 1.7 uM incubated for 3 days in presence of 0.33 uM acalabrutinib relative to control; details: OCI-Ly10, 72 h, time 3 day, read-out: GI
[18] = test system: SUD4; experiment: Growth inhibition of human SU-DHL-4 cells at 1.7 uM incubated for 3 days in presence of 0.033 uM acalabrutinib relative to control; details: SU-DHL-4, 72 h, time 3 day, read-out: GI
[19] = test system: OCI-Ly10; experiment: Growth inhibition of human OCILY10 cells at 3.3 uM incubated for 3 days in presence of 0.033 uM acalabrutinib relative to control; details: OCI-Ly10, 72 h, time 3 day, read-out: GI
[20] = test system: OCI-Ly10; experiment: Growth inhibition of human OCILY10 cells at 0.33 uM incubated for 3 days in presence of 0.017 uM acalabrutinib relative to control; details: OCI-Ly10, 72 h, time 3 day, read-out: GI
[21] = test system: OCI-Ly10; experiment: Growth inhibition of human OCILY10 cells at 10 uM incubated for 3 days in presence of 0.017 uM acalabrutinib relative to control; details: OCI-Ly10, 72 h, time 3 day, read-out: GI
[22] = test system: SUD4; experiment: Growth inhibition of human SU-DHL-4 cells at 3.3 uM incubated for 3 days in presence of 0.017 uM acalabrutinib relative to control; details: SU-DHL-4, 72 h, time 3 day, read-out: GI
[23] = test system: OCI-Ly10; experiment: Growth inhibition of human OCILY10 cells at 0.17 uM incubated for 3 days in presence of 0.017 uM acalabrutinib relative to control; details: OCI-Ly10, 72 h, time 3 day, read-out: GI
[24] = test system: SUD4; experiment: Growth inhibition of human SU-DHL-4 cells at 3.3 uM incubated for 3 days in presence of 0.17 uM acalabrutinib relative to control; details: SU-DHL-4, 72 h, time 3 day, read-out: GI
[25] = test system: OCI-Ly10; experiment: Growth inhibition of human OCILY10 cells at 0.17 uM incubated for 3 days in presence of 0.33 uM acalabrutinib relative to control; details: OCI-Ly10, 72 h, time 3 day, read-out: GI
[26] = test system: SUD4; experiment: Growth inhibition of human SU-DHL-4 cells at 1.7 uM incubated for 3 days in presence of 0.17 uM acalabrutinib relative to control; details: SU-DHL-4, 72 h, time 3 day, read-out: GI
[27] = test system: OCI-Ly10; experiment: Growth inhibition of human OCILY10 cells at 1.7 uM incubated for 3 days in presence of 0.17 uM acalabrutinib relative to control; details: OCI-Ly10, 72 h, time 3 day, read-out: GI
[28] = test system: SUD4; experiment: Growth inhibition of human SU-DHL-4 cells at 3.3 uM incubated for 3 days in presence of 0.003 uM acalabrutinib relative to control; details: SU-DHL-4, 72 h, time 3 day, read-out: GI
[29] = test system: SUD4; experiment: Growth inhibition of human SU-DHL-4 cells at 10 uM incubated for 3 days in presence of 0.033 uM acalabrutinib relative to control; details: SU-DHL-4, 72 h, time 3 day, read-out: GI
[30] = test system: SUD4; experiment: Growth inhibition of human SU-DHL-4 cells at 10 uM incubated for 3 days in presence of 0.17 uM acalabrutinib relative to control; details: SU-DHL-4, 72 h, time 3 day, read-out: GI
[31] = test system: SUD4; experiment: Growth inhibition of human SU-DHL-4 cells at 0.17 uM incubated for 3 days in presence of 0.003 uM acalabrutinib relative to control; details: SU-DHL-4, 72 h, time 3 day, read-out: GI
[32] = test system: OCI-Ly10; experiment: Growth inhibition of human OCILY10 cells at 10 uM incubated for 3 days in presence of 0.033 uM acalabrutinib relative to control; details: OCI-Ly10, 72 h, time 3 day, read-out: GI
[33] = test system: SUD4; experiment: Growth inhibition of human SU-DHL-4 cells at 0.33 uM incubated for 3 days in presence of 0.033 uM acalabrutinib relative to control; details: SU-DHL-4, 72 h, time 3 day, read-out: GI
[34] = test system: SUD4; experiment: Growth inhibition of human SU-DHL-4 cells at 1.7 uM incubated for 3 days in presence of 0.003 uM acalabrutinib relative to control; details: SU-DHL-4, 72 h, time 3 day, read-out: GI
[35] = test system: OCI-Ly10; experiment: Growth inhibition of human OCILY10 cells at 0.17 uM incubated for 3 days in presence of 0.033 uM acalabrutinib relative to control; details: OCI-Ly10, 72 h, time 3 day, read-out: GI
[36] = test system: OCI-Ly10; experiment: Growth inhibition of human OCILY10 cells at 3.3 uM incubated for 3 days in presence of 0.17 uM acalabrutinib relative to control; details: OCI-Ly10, 72 h, time 3 day, read-out: GI
[37] = test system: OCI-Ly10; experiment: Growth inhibition of human OCILY10 cells at 0.17 uM incubated for 3 days in presence of 0.17 uM acalabrutinib relative to control; details: OCI-Ly10, 72 h, time 3 day, read-out: GI
[38] = test system: SUD4; experiment: Growth inhibition of human SU-DHL-4 cells at 0.17 uM incubated for 3 days in presence of 0.33 uM acalabrutinib relative to control; details: SU-DHL-4, 72 h, time 3 day, read-out: GI
[39] = test system: SUD4; experiment: Growth inhibition of human SU-DHL-4 cells at 0.17 uM incubated for 3 days in presence of 0.17 uM acalabrutinib relative to control; details: SU-DHL-4, 72 h, time 3 day, read-out: GI
[40] = test system: SUD4; experiment: Growth inhibition of human SU-DHL-4 cells at 1.7 uM incubated for 3 days in presence of 0.33 uM acalabrutinib relative to control; details: SU-DHL-4, 72 h, time 3 day, read-out: GI
[41] = test system: SUD4; experiment: Growth inhibition of human SU-DHL-4 cells at 10 uM incubated for 3 days in presence of 0.017 uM acalabrutinib relative to control; details: SU-DHL-4, 72 h, time 3 day, read-out: GI

Work on `Cc1ncc(-c2nc3c(OC4(C)CC4)nc(Nc4cnn(C5CCN(C)CC5)c4)nc3cc2F)cn1` yielded an inhibition of growth at 3.3 µM [1] of 194%, an inhibition of growth at 3.3 µM [2] of 194% and an inhibition of growth at 0.33 µM [3] of 172%. For the same molecule, the inhibition of growth at 3.3 µM [4] was 156%, the inhibition of growth at 10 µM [5] was 1% and the inhibition of growth at 10 µM [6] was 197%. For the same molecule, the inhibition of growth at 10 µM [7] was 0%, the inhibition of growth at 10 µM [8] was 195% and the inhibition of growth at 10 µM [9] was 199%. The inhibition of growth at 0.33 µM [10] was 169%, the inhibition of growth at 0.33 µM [11] was 33% and the inhibition of growth at 1.7 µM [12] was 0%. It also gave an inhibition of growth at 3.3 µM [13] of -4%, an inhibition of growth at 0.17 µM [14] of -4% and an inhibition of growth at 0.17 µM [15] of 24%. It also gave an inhibition of growth at 3.3 µM [16] of -2%, an inhibition of growth at 1.7 µM [17] of 193% and an inhibition of growth at 1.7 µM [18] of -4%. For the same molecule, the inhibition of growth at 3.3 µM [19] was 194%, the inhibition of growth at 0.33 µM [20] was 122% and the inhibition of growth at 10 µM [21] was 198%. The inhibition of growth at 3.3 µM [22] was 0%, the inhibition of growth at 0.17 µM [23] was 92% and the inhibition of growth at 3.3 µM [24] was -3%. It also gave an inhibition of growth at 0.17 µM [25] of 138%, an inhibition of growth at 1.7 µM [26] of -3% and an inhibition of growth at 1.7 µM [27] of 190%. The inhibition of growth at 3.3 µM [28] was -1%, the inhibition of growth at 10 µM [29] was -2% and the inhibition of growth at 10 µM [30] was -1%. For the same molecule, the inhibition of growth at 0.17 µM [31] was -1%, the inhibition of growth at 10 µM [32] was 197% and the inhibition of growth at 0.33 µM [33] was -3%. For the same molecule, the inhibition of growth at 1.7 µM [34] was -1%, the inhibition of growth at 0.17 µM [35] was 117% and the inhibition of growth at 3.3 µM [36] was 194%. For the same molecule, the inhibition of growth at 0.17 µM [37] was 147%, the inhibition of growth at 0.17 µM [38] was -2% and the inhibition of growth at 0.17 µM [39] was -3%. For the same molecule, the inhibition of growth at 1.7 µM [40] was -2% and the inhibition of growth at 10 µM [41] was 2%.
